Test results reported in patent US20190175785A1, “SILK FIBROIN SYSTEMS FOR ANTIBIOTIC DELIVERY” (Trustees of Tufts College, priority 2009, published 2019).
≈ marks a conversion by molar mass, not a printed value. Where two headings read alike, the source gives them in different places.

What was measured:
[1] = system: S. aureus ATCC 25923; settings: S. aureus ATCC 25923, NCCLS (2000); cited from earlier work
[2] = system: E. coli ATCC 25922; settings: E. coli ATCC 25922, NCCLS (2000); cited from earlier work
[3] = cited from earlier work
[4] = Long-term stability study, residual activity of stored penicillin; assay type: physicochemical; settings: stored at 25° C. and 37° C.
Description: To determine if incorporation into silk films would have a similar stabilizing effect to that observed for enzymes, a long-term stability study was carried out comparing the residual activity of penicillin stored in 8% (w/v) silk films or in solution at 4° C. (refrigeration), 25° C. (room temperature) and 37° C. (body temperature).
Stability was also characterized for dry penicillin powder stored at 4° C., 25° C., and 37° C. Comparison of the stability of penicillin stored in silk films, in solution and in dry powder format over 60 days is shown in FIG. 14.

Row | Compound | MIC [1] [mg/L] | MIC [2] [mg/L] | time of breakdown in solution ([3]; 37° C.) [h] | time of breakdown in solution ([3]; room temperature (25° C.)) | stability of penicillin in solution [4]
1 | gentamicin | 0.25 | 0.5 |  |  | 
2 | Cc1nnc(SCC2=C(C(=O)O)N3C(=O)[C@@H](NC(=O)Cn4cnnn4)[C@H]3SC2)s1 [cefazolin] | 0.25 (≈ 0.55 µM) | 1.0 (≈ 2.2 µM) |  |  | 
3 | penicillin |  |  | ≤ 24 | within weeks | rapidly declines
